Source: patent publication US11267826B2, “Penicillin-binding protein inhibitors” (priority 2017, dated 2022)
Like-named read-outs stand apart in the source and are kept apart here.

Assays:
[1] = tested on: S. aureus ATCC 29213; test: Broth microdilution MIC assay, S. aureus; assay type: cell-based; settings: Staphylococcus aureus
Description: (§1) To determine the ability of test compounds to potentiate the inhibition of the growth of bacterial strains, classic cell based broth microdilution MIC assays were employed. MIC assays are performed according to CLSI methods except where otherwise noted (CLSI, 2011 and CLSI, 2009). The reference strain S. aureus ATCC 29213 and the hyper-permeable E. coli 901C were used to determine the ability of the PBP compounds to inhibit bacterial growth. Briefly, cryo-preserved bacterial cultures of clinical strains are streaked for isolation on appropriate agar medium, in this case Mueller Hinton II agar. Following incubation to allow formation of colonies these plates are sealed with parafilm and stored refrigerated for up to two weeks. For preparation of assay inocula and to ensure low variability, at least 5 colonies are picked from the agar plates with an inoculating loop and aseptically transferred to a culture tube containing 3 mL of Mueller-Hinton Broth (supplemented with divalent cations to required levels based on Manufacturers' certification). The broth culture is grown for 3-5 hours at 37° C. with shaking at 200 rpm. Meanwhile, 2-fold serial dilutions of test compounds are conducted in a 96 well plate with a final volume of 75 μL per well at 2-fold the final desired concentration. After the dilution plates are set up the growing cultures are then diluted in a cuvette containing MH II broth and the optical density is measured at 600 nm. Inocula are diluted such that 75 μL of this culture in Mueller-Hinton Broth results in a starting bacterial concentration of 5×10^5 CFU/mL when added to the dilution plates. The plates are incubated 16-20 hours at 37° C. The MIC is read visually as the lowest concentration well with no bacterial growth.

[2] = tested on: hyper-permeable E. coli 901C; test: Broth microdilution MIC assay, hyper-permeable E. coli; assay type: cell-based; settings: Escherichia coli, read-out: E. coli 901C MIC
Description: as §1

[3] = ATCC29213, broth microdilution, 16-20 hours at 37° C., read-out: S. aureus 29213 MIC

Row | Compound | MIC [1, 3] [µg/mL] | MIC [2] [µg/mL] | MIC ([1]; ATCC29213, read-out: S. aureus 29213 MIC) [µg/mL]
1 | O=C(N[C@H]1Cc2cccc(C(=O)O)c2OB1O)/C(=N\O)c1cscn1 [Example 90, (R,Z)-2-hydroxy-3-(2-(hydroxyimino)-2-(thiazol-4-yl)acetamido)-3,4-dihydro-2H-benzo[e][1,2]oxaborinine-8-carboxylic Acid] | < 64 | 64 to 128 | –
2 | O=C(N[C@H]1Cc2cccc(C(=O)O)c2OB1O)/C(=N\O)c1csc(S)n1 [Example 91, (R,Z)-2-hydroxy-3-(2-(hydroxyimino)-2-(2-mercaptothiazol-4-yl)acetamido)-3,4-dihydro-2H-benzo[e][1,2]oxaborinine-8-carboxylic Acid] | < 64 | > 128 | –
3 | COc1ccc(CSc2nc(/C(=N/O)C(=O)N[C@H]3Cc4cccc(C(=O)O)c4OB3O)cs2)cc1 [Example 92, (R,Z)-2-hydroxy-3-(2-(hydroxyimino)-2-(2-((4-methoxybenzyl)thio)thiazol-4-yl)acetamido)-3,4-dihydro-2H-benzo[e][1,2]oxaborinine-8-carboxylic Acid] | < 64 | > 128 | –
4 | O=C(N[C@H]1Cc2cccc(C(=O)O)c2OB1O)C(=NO)c1csc(-n2ccnc2)n1 [Example 93, (R)-3-(2-(2-(1H-imidazol-1-yl)thiazol-4-yl)-2-(hydroxyimino)acetamido)-2-hydroxy-3,4-dihydro-2H-benzo[e][1,2]oxaborinine-8-carboxylic Acid] | < 64 | > 128 | –
5 | NCCN(CCN)c1nc(/C(=N/O)C(=O)N[C@H]2Cc3cccc(C(=O)O)c3OB2O)cs1 [Example 94, (R,Z)-3-(2-(2-(bis(2-aminoethyl)amino)thiazol-4-yl)-2-(hydroxyimino)acetamido)-2-hydroxy-3,4-dihydro-2H-benzo[e][1,2]oxaborinine-8-carboxylic Acid] | < 64 | > 128 | –
6 | CC(C)O/N=C(\C(=O)N[C@H]1Cc2cccc(C(=O)O)c2OB1O)c1csc(N)n1 [Example 97, (R,Z)-3-(2-(2-aminothiazol-4-yl)-2-(isopropoxyimino)acetamido)-2-hydroxy-3,4-dihydro-2H-benzo[e][1,2]oxaborinine-8-carboxylic Acid] | 64 to 128 | > 128 | –
7 | CCCO/N=C(\C(=O)N[C@H]1Cc2cccc(C(=O)O)c2OB1O)c1csc(N)n1 [Example 98, (R,Z)-3-(2-(2-aminothiazol-4-yl)-2-(propoxyimino)acetamido)-2-hydroxy-3,4-dihydro-2H-benzo[e][1,2]oxaborinine-8-carboxylic Acid] | < 64 | < 64 | –
8 | CC(C)CO/N=C(\C(=O)N[C@H]1Cc2cccc(C(=O)O)c2OB1O)c1csc(N)n1 [Example 100, (R,Z)-3-(2-(2-aminothiazol-4-yl)-2-(isobutoxyimino)acetamido)-2-hydroxy-3,4-dihydro-2H-benzo[e][1,2]oxaborinine-8-carboxylic Acid] | < 64 | < 64 | –
9 | O=C(N[C@H]1Cc2cccc(C(=O)O)c2OB1O)/C(=N\O)c1csc(NCCF)n1 [Example 101, (R,Z)-3-(2-(2-((2-fluoroethyl)amino)thiazol-4-yl)-2-(hydroxyimino)acetamido)-2-hydroxy-3,4-dihydro-2H-benzo[e][1,2]oxaborinine-8-carboxylic Acid] | > 128 | 64 to 128 | –
10 | O=C(N[C@H]1Cc2cccc(C(=O)O)c2OB1O)/C(=N\O)c1csc(NCCO)n1 [Example 102, (R,Z)-2-hydroxy-3-(2-(2-((2-hydroxyethyl)amino)thiazol-4-yl)-2-(hydroxyimino)acetamido)-3,4-dihydro-2H-benzo[e][1,2]oxaborinine-8-carboxylic Acid] | > 128 | > 128 | –
11 | O=C(N[C@H]1Cc2cccc(C(=O)O)c2OB1O)/C(=N/O)c1nnn[nH]1 [Example 103, (R,E)-2-hydroxy-3-(2-(hydroxyimino)-2-(1H-tetrazol-5-yl)acetamido)-3,4-dihydro-2H-benzo[e][1,2]oxaborinine-8-carboxylic Acid] | > 128 | > 128 | –
12 | CC(O/N=C(\C(=O)N[C@H]1Cc2cccc(C(=O)O)c2OB1O)c1csc(N)n1)C(=O)NCCNCCN (stereo partly drawn) [Example 104, (3R)-3-((Z)-12-amino-2-(2-aminothiazol-4-yl)-5-methyl-6-oxo-4-oxa-3,7,10-triazadodec-2-enamido)-2-hydroxy-3,4-dihydro-2H-benzo[e][1,2]oxaborinine-8-carboxylic Acid] | – | < 64 | > 128
13 | NCCO/N=C(\C(=O)N[C@H]1Cc2cccc(C(=O)O)c2OB1O)c1csc(N)n1 [Example 105, (R,Z)-3-(2-((2-aminoethoxy)imino)-2-(2-aminothiazol-4-yl)acetamido)-2-hydroxy-3,4-dihydro-2H-benzo[e][1,2]oxaborinine-8-carboxylic Acid] | > 128 | < 64 | –
14 | CNc1nc(/C(=N/O)C(=O)N[C@H]2Cc3cccc(C(=O)O)c3OB2O)cs1 [Example 106, (R,Z)-2-hydroxy-3-(2-(hydroxyimino)-2-(2-(methylamino)thiazol-4-yl)acetamido)-3,4-dihydro-2H-benzo[e][1,2]oxaborinine-8-carboxylic Acid] | > 128 | > 128 | –
15 | CCNc1nc(/C(=N/O)C(=O)N[C@H]2Cc3cccc(C(=O)O)c3OB2O)cs1 [Example 107, (R,Z)-3-(2-(2-(ethylamino)thiazol-4-yl)-2-(hydroxyimino)acetamido)-2-hydroxy-3,4-dihydro-2H-benzo[e][1,2]oxaborinine-8-carboxylic Acid] | > 128 | > 128 | –
16 | O=C(O)CNc1nc(/C(=N/O)C(=O)N[C@H]2Cc3cccc(C(=O)O)c3OB2O)cs1 [Example 108, (R,Z)-3-(2-(2-((carboxymethyl)amino)thiazol-4-yl)-2-(hydroxyimino)acetamido)-2-hydroxy-3,4-dihydro-2H-benzo[e][1,2]oxaborinine-8-carboxylic Acid] | > 128 | > 128 | –
17 | NC(=O)CNc1nc(/C(=N/O)C(=O)N[C@H]2Cc3cccc(C(=O)O)c3OB2O)cs1 [Example 109, (R,Z)-3-(2-(2-((2-amino-2-oxoethyl)amino)thiazol-4-yl)-2-(hydroxyimino)acetamido)-2-hydroxy-3,4-dihydro-2H-benzo[e][1,2]oxaborinine-8-carboxylic Acid] | > 128 | > 128 | –
18 | NCCON=C(C(=O)N[C@H]1Cc2cccc(C(=O)O)c2OB1O)c1nnn[nH]1 [Example 110, (R)-3-(2-((2-aminoethoxy)imino)-2-(1H-tetrazol-5-yl)acetamido)-2-hydroxy-3,4-dihydro-2H-benzo[e][1,2]oxaborinine-8-carboxylic Acid] | > 128 | > 128 | –
19 | NCCn1nnc(C(=NO)C(=O)N[C@H]2Cc3cccc(C(=O)O)c3OB2O)n1 [Example 111, (R)-3-(2-(2-(2-aminoethyl)-2H-tetrazol-5-yl)-2-(hydroxyimino)acetamido)-2-hydroxy-3,4-dihydro-2H-benzo[e][1,2]oxaborinine-8-carboxylic Acid] | > 128 | > 128 | –
20 | O=C(O)CO/N=C(/Cn1cncn1)C(=O)N[C@H]1Cc2cccc(C(=O)O)c2OB1O [Example 112, (R,Z)-3-(2-((carboxymethoxy)imino)-3-(1H-1,2,4-triazol-1-yl)propanamido)-2-hydroxy-3,4-dihydro-2H-benzo[e][1,2]oxaborinine-8-carboxylic Acid] | > 128 | > 128 | –
21 | Nc1nc(/C(=N/OCC(F)F)C(=O)N[C@H]2Cc3cccc(C(=O)O)c3OB2O)cs1 [Example 114, (R,Z)-3-(2-(2-aminothiazol-4-yl)-2-((2,2-difluoroethoxy)imino)acetamido)-2-hydroxy-3,4-dihydro-2H-benzo[e][1,2]oxaborinine-8-carboxylic Acid] | 64 to 128 | < 64 | –
22 | Nc1nc(/C(=N/OCCCCl)C(=O)N[C@H]2Cc3cccc(C(=O)O)c3OB2O)cs1 [Example 115, (R,Z)-3-(2-(2-aminothiazol-4-yl)-2-((3-chloropropoxy)imino)acetamido)-2-hydroxy-3,4-dihydro-2H-benzo[e][1,2]oxaborinine-8-carboxylic Acid] | > 128 | < 64 | –
23 | Nc1nc(/C(=N/OCCCBr)C(=O)N[C@H]2Cc3cccc(C(=O)O)c3OB2O)cs1 [Example 116, (R,Z)-3-(2-(2-aminothiazol-4-yl)-2-((3-bromopropoxy)imino)acetamido)-2-hydroxy-3,4-dihydro-2H-benzo[e][1,2]oxaborinine-8-carboxylic Acid] | > 128 | > 128 | –
24 | Nc1nc(/C(=N/OCC(F)(F)F)C(=O)N[C@H]2Cc3cccc(C(=O)O)c3OB2O)cs1 [Example 117, (R,Z)-3-(2-(2-aminothiazol-4-yl)-2-((2,2,2-trifluoroethoxy)imino)acetamido)-2-hydroxy-3,4-dihydro-2H-benzo[e][1,2]oxaborinine-8-carboxylic Acid] | 64 to 128 | < 64 | –
